One experiment has as its target T1, EBP (Homo sapiens, UniProt Q15125).
T1 construct: HEK293T cells were utilized as the source of EBP enzyme; endogenous in cells; host or cells: HEK293T
Nature of the experiment: EBP Functional Assay (EBP immunoaffinity LC-MS assay). Format: biochemical.
Settings: not given
On the procedure: The EBP immunoaffinity (IA) LC-MS assay measures the potency of small molecule inhibitors of EBP by quantifying their concentration-dependent changes in the enzyme's substrate and product using liquid chromatography atmospheric pressure chemical ionization multiple reaction monitoring mass spectrometry (LC-APCI MRM MS). HEK293T cells were utilized as the source of EBP enzyme. The enzyme was incubated with the small molecule inhibitors at variable concentrations for 30 min. Deuterated form of EBP substrate, zymosterol-d5 (Avanti Polar Lipids, Cat #700068P-1 mg), was then added and the plate was incubated at 37 °C for 4 h. Finally, the sterol isomers were extracted and injected to LC-APCI MRM MS. MRM transition used for the quantification for both zymosterol and dihydrolathosterol (substrate and product of EBP enzymatic reaction, respectively) is 372.3-203.2, CE 30 and DP 80 in positive ion mode. Percent conversion of the zymosterol-d5 to dehydrolathosterol-d5 was used to derive IC50 curves. Tasin-1 (1′-[(4-Methoxyphenyl)sulfonyl]-4-methyl-1,4′-bipiperidine, CAS 792927-06-1) was used as the reference small molecule inhibitor.
Percent conversion versus the compound concentration data were fit to the following 4-parameter logistic model to generate IC50 curves: […]
T1 sequence (Q15125 whole entry): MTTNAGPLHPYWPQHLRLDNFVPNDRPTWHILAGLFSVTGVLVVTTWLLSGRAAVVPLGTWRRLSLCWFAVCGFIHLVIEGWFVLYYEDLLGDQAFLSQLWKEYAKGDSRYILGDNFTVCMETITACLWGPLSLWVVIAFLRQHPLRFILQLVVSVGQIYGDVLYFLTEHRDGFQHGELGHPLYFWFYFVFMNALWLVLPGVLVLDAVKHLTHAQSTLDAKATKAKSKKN
With `Cc1nc(C(F)(F)F)ccc1S(=O)(=O)N1CC2(CCC(N3CCOCC3)C2)C1` (centres unmarked) [Example 40, 4-(2-((2-Methyl-6-(trifluoromethyl)pyridin-3-yl)sulfonyl)-2-azaspiro[3.4]octan-6-yl)morpholine], the IC50 is less than 100 nM. Still for that read-out and setting: under `Cc1cc(C(F)(F)F)ncc1S(=O)(=O)N1CC2(CCC(N3CCOCC3)C2)C1` (centres unmarked) [Example 41, 4-(2-((4-Methyl-6-(trifluoromethyl)pyridin-3-yl)sulfonyl)-2-azaspiro[3.4]octan-6-yl)morpholine] stands 100 to 500 nM. `Cc1nc(Cl)ccc1S(=O)(=O)N1CC2(CCC(N3CCOCC3)C2)C1` (centres unmarked) [Example 42, 4-(2-((6-Chloro-2-methylpyridin-3-yl)sulfonyl)-2-azaspiro[3.4]octan-6-yl)morpholine] gave an IC50 of less than 100 nM. The same measure, in the same setting: under `O=S(=O)(c1ccc(OC(F)F)cc1)N1CC2(CCC(N3CCOCC3)C2)C1` (centres unmarked) [Example 44, 4-(2-((4-(Difluoromethoxy)phenyl)sulfonyl)-2-azaspiro[3.4]octan-6-yl)morpholine] stands 500 to 3000 nM; under `Cc1ccc(S(=O)(=O)N2CC3(CCC(N4CCOCC4)C3)C2)c(C)c1` (centres unmarked) [Example 45, 4-(2-((2,4-Dimethylphenyl)sulfonyl)-2-azaspiro[3.4]octan-6-yl)morpholine], less than 100 nM; under `O=S(=O)(c1ccc(F)cc1F)N1CC2(CCC(N3CCOCC3)C2)C1` (centres unmarked) [Example 46, 4-(2-((2,4-Difluorophenyl)sulfonyl)-2-azaspiro[3.4]octan-6-yl)morpholine], 500 to 3000 nM.

Regarding `Cc1cc(C)c(S(=O)(=O)N2CC3(CCC(N4CCOCC4)C3)C2)cn1` (centres unmarked) [Example 47, 4-(2-((4,6-Dimethylpyridin-3-yl)sulfonyl)-2-azaspiro[3.4]octan-6-yl)morpholine], the IC50 fell in the range of 100 to 500 nM. The compound `COc1ccc(S(=O)(=O)N2CC3(CCC(N4CCOCC4)C3)C2)c(C)n1` (centres unmarked) [Example 48, 4-(2-((6-methoxy-2-methylpyridin-3-yl)sulfonyl)-2-azaspiro[3.4]octan-6-yl)morpholine] came in with an IC50 of less than 100 nM. On the same count and under the same terms, the same measure for `N#Cc1cc(F)cc(S(=O)(=O)N2CC3(CC[C@@H](N4CCOCC4)C3)C2)c1` [Example 50, (R)-3-Fluoro-5-((6-morpholino-2-azaspiro[3.4]octan-2-yl)sulfonyl)benzonitrile]: 500 to 3000 nM; for `N#Cc1cc(F)cc(S(=O)(=O)N2CC3(CC[C@H](N4CCOCC4)C3)C2)c1` [Example 52, (S)-3-Fluoro-5-((6-morpholino-2-azaspiro[3.4]octan-2-yl)sulfonyl)benzonitrile]: 500 to 3000 nM. Still for that read-out and setting: the same measure for `Cc1cc(S(=O)(=O)N2CC3(CC(N4CCC(C)CC4)CO3)C2)n(C)n1` (centres unmarked) [Example 55, 2-((1,3-Dimethyl-1H-pyrazol-5-yl)sulfonyl)-7-(4-methylpiperidin-1-yl)-5-oxa-2-azaspiro[3.4]octane]: 100 to 500 nM; for `COc1ccc(S(=O)(=O)N2CC3(CC(N4CCC(C)CC4)CO3)C2)c(C)n1` (centres unmarked) [Example 56, 2-((6-Methoxy-2-methylpyridin-3-yl)sulfonyl)-7-(4-methylpiperidin-1-yl)-5-oxa-2-azaspiro[3.4]octane]: less than 100 nM; for `Cc1nc(C(C)(F)F)ccc1S(=O)(=O)N1CC2(CC(N3CC4(CCO4)C3)C2)C1` [Example 68, 6-(2-((6-(1,1-difluoroethyl)-2-methylpyridin-3-yl)sulfonyl)-2-azaspiro[3.3]heptan-6-yl)-1-oxa-6-azaspiro[3.3]heptane]: 500 to 3000 nM.

In turn, `Cc1nc(C(F)(F)F)ncc1S(=O)(=O)N1CC2(CC(N(C)C3CCOCC3)C2)C1` [Example 80, N-methyl-2-((4-methyl-2-(trifluoromethyl)pyrimidin-5-yl)sulfonyl)-N-(tetrahydro-2H-pyran-4-yl)-2-azaspiro[3.3]heptan-6-amine] came in with an IC50 of less than 100 nM.

The same experiment, now with this note: HEK293T cells as source of EBP enzyme; zymosterol-d5 substrate; inhibitor 30 min, then 37 °C for 4 h; percent conversion to dehydrolathosterol-d5 by LC-APCI MRM MS; read-out: EBP Functional Assay.
Consider `Cc1cc(C)c(S(=O)(=O)N2CC3(CCC(N4CCOCC4)C3)C2)c(C)c1` (centres unmarked) [Example 43, 4-(2-(Mesitylsulfonyl)-2-azaspiro[3.4]octan-6-yl)morpholine], for which the IC50 is less than 100 nM. The same measure, in the same setting: under `Cn1nc(C(F)(F)F)cc1S(=O)(=O)N1CC2(CC[C@@H](N3CCOCC3)C2)C1` [Example 49, (R)-4-(2-((1-Methyl-3-(trifluoromethyl)-1H-pyrazol-5-yl)sulfonyl)-2-azaspiro[3.4]octan-6-yl)morpholine] stands 100 to 500 nM; under `Cn1nc(C(F)(F)F)cc1S(=O)(=O)N1CC2(CC[C@H](N3CCOCC3)C2)C1` [Example 51, (S)-4-(2-((1-methyl-3-(trifluoromethyl)-1H-pyrazol-5-yl)sulfonyl)-2-azaspiro[3.4]octan-6-yl)morpholine], 100 to 500 nM. Turning to `Cc1cc(C)c(S(=O)(=O)N2CC3(CC(N4CCOCC4)CO3)C2)c(C)c1` (centres unmarked) [Example 53, 2-(Mesitylsulfonyl)-7-morpholino-5-oxa-2-azaspiro[3.4]octane], the IC50 was in the range of 100 to 500 nM. On the same count and under the same terms, under `CC1CCN(C2COC3(C2)CN(S(=O)(=O)c2ccc(OC(F)F)cc2)C3)CC1` (centres unmarked) [Example 54, 2-((4-(Difluoromethoxy)phenyl)sulfonyl)-7-(4-methylpiperidin-1-yl)-5-oxa-2-azaspiro[3.4]octane] stands 100 to 500 nM; under `Cn1nc(C(F)(F)F)cc1S(=O)(=O)N1CC2(C[C@@H](N3CCOCC3)CO2)C1` [Example 57, (R)-2-((1-methyl-3-(trifluoromethyl)-1H-pyrazol-5-yl)sulfonyl)-7-morpholino-5-oxa-2-azaspiro[3.4]octane], 500 to 3000 nM.

Consider `CN(C1CCC(F)(F)CC1)C1COC2(C1)CN(S(=O)(=O)c1cc(C#N)ccc1F)C2` (centres unmarked) [Example 59, 3-((7-((4,4-Difluorocyclohexyl)(methyl)amino)-5-oxa-2-azaspiro[3.4]octan-2-yl)sulfonyl)-4-fluorobenzonitrile], for which the IC50 was less than 100 nM. On the same count and under the same terms, the same measure for `Cc1nc(C(C)(F)F)ccc1S(=O)(=O)N1CC2(CC(NC3COC3)C2)C1` [Example 69, 2-((6-(1,1-difluoroethyl)-2-methylpyridin-3-yl)sulfonyl)-N-(oxetan-3-yl)-2-azaspiro[3.3]heptan-6-amine]: 500 to 3000 nM; for `Cc1nc(C(C)(F)F)ccc1S(=O)(=O)N1CC2(CC(NC3CC4(COC4)C3)C2)C1` (centres unmarked) [Example 70, 2-((6-(1,1-difluoroethyl)-2-methylpyridin-3-yl)sulfonyl)-N-(2-oxaspiro[3.3]heptan-6-yl)-2-azaspiro[3.3]heptan-6-amine]: 100 to 500 nM; for `Cc1nc(C(C)(F)F)ccc1S(=O)(=O)N1CC2(CC(NCC3CCOCC3)C2)C1` [Example 71, 2-((6-(1,1-difluoroethyl)-2-methylpyridin-3-yl)sulfonyl)-N-((tetrahydro-2H-pyran-4-yl)methyl)-2-azaspiro[3.3]heptan-6-amine]: less than 100 nM. On to `Cc1nc(C(C)(F)F)ccc1S(=O)(=O)N1CC2(CC(N(C)C3CCOCC3)C2)C1` [Example 72, 2-((6-(1,1-difluoroethyl)-2-methylpyridin-3-yl)sulfonyl)-N-methyl-N-(tetrahydro-2H-pyran-4-yl)-2-azaspiro[3.3]heptan-6-amine], for which the IC50 is less than 100 nM. Same read-out and setting: the same measure for `Cc1nc(C(C)(F)F)ccc1S(=O)(=O)N1CC2(CC(N(C)C3COC3)C2)C1` [Example 73, 2-((6-(1,1-difluoroethyl)-2-methylpyridin-3-yl)sulfonyl)-N-methyl-N-(oxetan-3-yl)-2-azaspiro[3.3]heptan-6-amine]: 100 to 500 nM; for `Cc1nc(C(C)(F)F)ccc1S(=O)(=O)N1CC2(CC(N(C)C3CC4(COC4)C3)C2)C1` (centres unmarked) [Example 74, 2-((6-(1,1-difluoroethyl)-2-methylpyridin-3-yl)sulfonyl)-N-methyl-N-(2-oxaspiro[3.3]heptan-6-yl)-2-azaspiro[3.3]heptan-6-amine]: less than 100 nM; for `Cc1nc(C(C)(F)F)ccc1S(=O)(=O)N1CC2(CC(N(C)CC3CCOCC3)C2)C1` [Example 75, 2-((6-(1,1-difluoroethyl)-2-methylpyridin-3-yl)sulfonyl)-N-methyl-N-((tetrahydro-2H-pyran-4-yl)methyl)-2-azaspiro[3.3]heptan-6-amine]: 100 to 500 nM.

`Cc1nc(C(F)(F)F)ncc1S(=O)(=O)N1CC2(CC(NC3CCOCC3)C2)C1` [Example 76, 2-((4-methyl-2-(trifluoromethyl)pyrimidin-5-yl)sulfonyl)-N-(tetrahydro-2H-pyran-4-yl)-2-azaspiro[3.3]heptan-6-amine]: the IC50 was in the range of 100 to 500 nM.

Turning to `Cc1nc(C(F)(F)F)ncc1S(=O)(=O)N1CC2(CC(NC3COC3)C2)C1` [Example 77, 2-((4-methyl-2-(trifluoromethyl)pyrimidin-5-yl)sulfonyl)-N-(oxetan-3-yl)-2-azaspiro[3.3]heptan-6-amine], the IC50 is 500 to 3000 nM.

In the case of `Cc1nc(C(F)(F)F)ncc1S(=O)(=O)N1CC2(CC(NC3CC4(COC4)C3)C2)C1` (centres unmarked) [Example 78, 2-((4-methyl-2-(trifluoromethyl)pyrimidin-5-yl)sulfonyl)-N-(2-oxaspiro[3.3]heptan-6-yl)-2-azaspiro[3.3]heptan-6-amine], the IC50 fell in the range of 100 to 500 nM. Regarding `Cc1nc(C(F)(F)F)ncc1S(=O)(=O)N1CC2(CC(NCC3CCOCC3)C2)C1` [Example 79, 2-((4-methyl-2-(trifluoromethyl)pyrimidin-5-yl)sulfonyl)-N-((tetrahydro-2H-pyran-4-yl)methyl)-2-azaspiro[3.3]heptan-6-amine], the IC50 was in the range of 100 to 500 nM.

The values above are taken from patent US20260365663A1, “EMOPAMIL-BINDING PROTEIN INHIBITORS AND USES THEREOF” (BIOGEN MA INC., priority 2022, published 2026).
